From US20240277732A1, “COMPOSITIONS AND METHODS FOR TREATING BRAIN-GUT DISORDERS” (Enterin, Inc., priority 2018, published 2024)
Entries after “also recorded” stand apart in the source; their conditions may differ.

Tests used:
Assay type in all cases: in vivo, human
[1] = test system: patients with PD and constipation; assay: Phase 2 trial Stage 2: circadian rhythm of wrist skin temperature
Method: (§1) Assessments were made at baseline and at the end of the fixed dose and washout periods. Circadian system status was evaluated by continuously monitoring wrist skin temperature (Thermochron iButton DS1921H; Maxim, Dallas) following published procedures (Sarabia et al. 2008).
Circadian rhythm of skin temperature was evaluable in 12 patients (i.e., those who had recordings that extended from baseline through washout). Circadian system functionality was evaluated by continuously monitoring wrist skin temperature using a temperature sensor (Thermochron iButton DS1921H; Maxim, Dallas, TX) (Sarabia et al. 2008). A nonparametric analysis was performed for each participant to characterize DST as previously described (Sarabia et al. 2008; Ortiz-Tudela et al. 2010). […]
Briefly, this analysis includes the following parameters: (i) the inter-daily stability (the constancy of 24-hour rhythmic pattern over days, IS); (ii) intra-daily variability (rhythm fragmentation, IV); (iii) average of 10-minute intervals for the 10 hours with the minimum temperature (L10); (iv) average of 10-minute intervals for the 5 hours with the maximum temperature (M5) and the relative amplitude (RA), which was determined by the difference between M5 and L10, divided by the sum of both. Finally, the Circadian Function Index (CFI) was calculated by integrating IS, IV, and RA. […]

[2] = Phase 2 trial Stage 2: systolic blood pressure
[3] = test system: patients with PD and constipation; assay: Phase 2 trial: adverse events (MedDRA, CTCAE grading)
Method: Tolerability limits included diarrhea or vomiting.
(§2) In Stage 2, 34 patients were evaluated.

[4] = test system: patients with PD and constipation; assay: Phase 2 trial Stage 2: CNS symptoms (UPDRS, MMSE, PDHQ, BDI-II, sleep diary)
Description: Exploratory end-points, in addition to constipation, included for example, (i) depression assessed using the Beck Depression Inventory (BDI-II) (Steer et al. 2000) and Unified Parkinson's Disease Rating Scale (UPDRS); (ii) cognition assessed using the Mini Mental State Examination (MMSE) (Palsteia et al. 2018), Unified Parkinson's Disease Rating Scale (UPDRS), and Trail Making Test (TMT); (iii) sleep and REM-behavior disorder (RBD) using a daily sleep diary, I-Button Temperature Assessment, a REM sleep behavior disorder (RBD) questionnaire (RBDQ) (Stiasny-Kolster et al. 2007), and the UPDRS; (iv) hallucinations assessed using the PD hallucinations questionnaire (PDHQ) (Papapetropoulos et al. 2008), the UPDRS, and direct questioning; (v) fatigue using the Parkinson's Disease Fatigue Scale (PFS-16) and the UPDRS; (vi) motor functions using the UPDRS; and (vii) non-motor functions using the UPDRS.
as §1
CNS Symptoms in Stage 2: An exploratory analysis was done with respect to the sleep data, the body temperature data, mood, fatigue, hallucinations, cognition and other motor and non-motor symptoms of PD. Continuous measurements within a subject were compared with a paired t-test and continuous measurements between subject groups were compared with a two-group t-test. Categorical data were compared with a chi-squared test or a Fisher's exact test if the expected cell counts are too small for a chi-squared test.

[5] = Phase 2 trial: pharmacokinetics of orally administered squalamine (ENT-01); settings: estimated against IV squalamine PK of prior clinical studies
Method: Pharmakokinetics: PK data were collected on the 10 patients enrolled in Stage 1 and 10 patients enrolled in Stage 2 to determine the extent of systemic absorption. In Stage 1, PK data were obtained at each visit, pre-medication, at 1, 2, 4, 8 and 24 hours (Table 10). In Stage 2, PK was measured on days 1 and 6 of the randomization period pre-medication, at 1, 2, 4 and 8 hours (Table 11).
The mean Cmax, Tmax and T1/2 and AUC of the squalamine ion following squalamine (ENT-01) oral dosing for Stage 1 patients. The PK analyses are only approximate, as the lower limit of the validated concentration range was 10 ng/ml; most of the measured concentrations fell below that value. The mean Cmax, Tmax and T1/2 and AUC of the squalamine ion following squalamine (ENT-01) oral dosing for Stage 2 patients. The PK analyses are only approximate, as the lower limit of the validated concentration range was 0.5 ng/ml.

[6] = test system: patients with PD and constipation; assay: Phase 2 trial Stage 2: bowel function under daily oral dosing (stool diary, PAC-QOL, PAC-SYM)
Method: Following successful screening, all subjects underwent a 14-day run-in period where the degree of constipation was assessed through a validated daily log (Zinsmeister et al. 2013) establishing baseline CSBMs/week. Subjects with an average of <3 CSBMs/week proceeded to dosing.
as §2
The primary efficacy outcome variable was whether or not a subject was a “success” or “failure”. This is an endpoint based on subject diary entries for the “fixed dose” period prior to the endpoint assessment defined as average complete stool frequency increase by 1 or more over baseline, or 3 or more complete spontaneous stools/week. The subject was deemed a “success” if s/he met one or more of the criteria listed above, otherwise the subject was deemed a “failure”. The primary analysis was based on all subjects with a baseline assessment and an assessment at the end of the “fixed-dose” period and was a comparison of the proportion of successes with 0.10 (the null hypothesis corresponding to no treatment effect).

CC(C)[C@@H](CC[C@@H](C)[C@H]1CC[C@H]2[C@@H]3[C@H](O)C[C@H]4C[C@@H](NCCCNCCCCN)CC[C@]4(C)[C@H]3CC[C@]12C)OS(=O)(=O)O (single isomer, unassigned) [squalamine (ENT-01)]
markers of healthy circadian function (IS, RA, CFI, IV) ([1]; fixed dose versus baseline, 12 evaluable patients): improved all markers of healthy circadian function; also recorded: significant positive impact on the circadian rhythm of skin temperature
circadian parameters during wash-out (IS, CFI) ([1]; wash-out versus baseline): improvement persisted for several of these circadian parameters
change of blood pressure at post medication measurement ([2]; Stage 2 subjects with high or low blood pressure): subjects with high blood pressure demonstrated lower blood pressure at post medication measurement, while subjects with low blood pressure demonstrated higher blood pressure
BP at V4 + 2 hrs post dose ([2]; individual subjects): 111 mmHg
Nausea, Mild ([3]; Stage 1 (10 dosed)): 4(40) n, %
Diarrhea, adverse events by dose ([3]; Stage 1, 25 mg): 1
Nausea, adverse events by dose ([3]; Stage 1, 25 mg): 0
Vomiting, adverse events by dose ([3]; Stage 1, 25 mg): 0
Diarrhea, adverse events by dose ([3]; Stage 1, 50 mg): 1
Nausea, adverse events by dose ([3]; Stage 1, 50 mg): 0
Vomiting, adverse events by dose ([3]; Stage 1, 50 mg): 0
Diarrhea, adverse events by dose ([3]; Stage 1, 75 mg): 1
Nausea, adverse events by dose ([3]; Stage 1, 75 mg): 0
Vomiting, adverse events by dose ([3]; Stage 1, 75 mg): 0
Diarrhea, adverse events by dose ([3]; Stage 1, 100 mg): 0
Nausea, adverse events by dose ([3]; Stage 1, 100 mg): 1
Vomiting, adverse events by dose ([3]; Stage 1, 100 mg): 1
Diarrhea, adverse events by dose ([3]; Stage 1, 125 mg): 1
Nausea, adverse events by dose ([3]; Stage 1, 125 mg): 2
Vomiting, adverse events by dose ([3]; Stage 1, 125 mg): 1
Diarrhea, adverse events by dose ([3]; Stage 1, 150 mg): 1
Nausea, adverse events by dose ([3]; Stage 1, 150 mg): 0
Vomiting, adverse events by dose ([3]; Stage 1, 150 mg): 0
Diarrhea, adverse events by dose ([3]; Stage 1, 175 mg): 1
Nausea, adverse events by dose ([3]; Stage 1, 175 mg): 1
Vomiting, adverse events by dose ([3]; Stage 1, 175 mg): 0
Diarrhea, adverse events by dose ([3]; Stage 1, 200 mg): 0
Nausea, adverse events by dose ([3]; Stage 1, 200 mg): 2
Vomiting, adverse events by dose ([3]; Stage 1, 200 mg): 0
Difficulty falling asleep, Mild ([3]; Stage 2 (34 dosed)): 1(3) n, %
Eye infection, Mild ([3]; Stage 2 (34 dosed)): 1(3) n, %
Flatulence, Mild ([3]; Stage 2 (34 dosed)): 1(3) n, %
Urinary retention, Mild ([3]; Stage 2 (34 dosed)): 1(3) n, %
Urinary tract infection, Mild ([3]; Stage 2 (34 dosed)): 1(3) n, %
Worsening hemorrhoid, Mild ([3]; Stage 2 (34 dosed)): 1(3) n, %
Diarrhea, adverse events by dose ([3]; Stage 2, 75 mg): 7
Dizziness (lightheadedness included), adverse events by dose ([3]; Stage 2, 75 mg): 8
Nausea, adverse events by dose ([3]; Stage 2, 75 mg): 3
Diarrhea, adverse events by dose ([3]; Stage 2, 100 mg): 10
Dizziness (lightheadedness included), adverse events by dose ([3]; Stage 2, 100 mg): 7
Nausea, adverse events by dose ([3]; Stage 2, 100 mg): 12
Diarrhea, adverse events by dose ([3]; Stage 2, 125 mg): 3
Dizziness (lightheadedness included), adverse events by dose ([3]; Stage 2, 125 mg): 8
Nausea, adverse events by dose ([3]; Stage 2, 125 mg): 4
Diarrhea, adverse events by dose ([3]; Stage 2, 150 mg): 2
Dizziness (lightheadedness included), adverse events by dose ([3]; Stage 2, 150 mg): 2
Nausea, adverse events by dose ([3]; Stage 2, 150 mg): 11
Diarrhea, adverse events by dose ([3]; Stage 2, 175 mg): 1
Dizziness (lightheadedness included), adverse events by dose ([3]; Stage 2, 175 mg): 0
Nausea, adverse events by dose ([3]; Stage 2, 175 mg): 12
Diarrhea, adverse events by dose ([3]; Stage 2, 200 mg): 3
Nausea, adverse events by dose ([3]; Stage 2, 200 mg): 6
Diarrhea, adverse events by dose ([3]; Stage 2, 225 mg): 3
Nausea, adverse events by dose ([3]; Stage 2, 225 mg): 1
Diarrhea, adverse events by dose ([3]; Stage 2, 250 mg): 2
time hallucinations did not return after discontinuation ([4]; 1 patient): 4 weeks
time hallucinations did not return after discontinuation ([4]; another patient): 2 weeks
patients in whom hallucinations and delusions improved or disappeared during treatment ([4]; of those with hallucinations (5) or delusions (1) at baseline): 5 of 6
oral bio-availability [5]: less than 0.3%
response rate (CSBM within 24 h of dosing on at least 2 of 3 days) ([6]; Stage 2, daily oral dosing, 75 mg): 26%
CSBM, weekly average (mean, SD) ([6]; Stage 2, fixed dose, n=34, baseline 1.2 (0.90)): 3.8 (2.4) /week
CSBM frequency ([6]; patients later randomized to placebo (n=9), fixed dose period on drug, baseline 1.6): 3.3 CSBM/week
CSBM frequency ([6]; randomized cohort, treatment arm (n=6), fixed dose period, baseline 0.8): 3.2 CSBM/week
CSBM frequency ([6]; randomized cohort, treatment arm (n=6), randomized period 4-6 days, baseline 0.8): 2.4 CSBM/week
CSBM frequency ([6]; randomized cohort, treatment arm (n=6), washout, baseline 0.8): 0.9 CSBM/week
